# In patent US4321208A, “Preparation of directly iodinated steroid hormones and related compounds” (priority 1976, dated 1982):
# What was measured:
# [1] = test system: anti-serum; conditions: Abraham and Odell; iodinated at positions 2 and 4; cited from earlier work
# [2] = test system: breast cancer tumor tissue; conditions: injected; patients responding to endocrine treatment vs those who do not respond; cited from earlier work
# [3] = test system: antiserum against estradiol-17 beta; assay: Radioimmunoassay: competition of nonradioactive estradiol with ^125 I estradiol-17 beta for antiserum; assay type: binding; conditions: antiserum 1:10,000 or 1:20,000; ^125 I estradiol-17 beta 70 Ci/mM
# Procedure: The procedure of this assay are identical as described by the instant inventor and authors C. […] After incubation, the unbound hormone was removed by charcoal adsorption.
smiles,measurement,setting,value
C[C@]12CC[C@@H]3c4cc(I)c(O)c(I)c4CC[C@H]3[C@@H]1CC[C@@H]2O,binding to anti-serum,[1],unable to bind the anti-serum
C[C@]12CC[C@@H]3c4ccc(O)cc4CC[C@H]3[C@@H]1CC[C@@H]2O [tritiated estradiol],concentration of tritiated hormone in tumor tissue,[2],usually concentrate more tritiated hormones in their tumor tissue
"C[C@]12CC[C@@H]3c4ccc(O)cc4CC[C@H]3[C@@H]1CC[C@@H]2O [unlabelled estradiol, estradiol]",effect of unlabelled estradiol on percent bound ^125 I estradiol,[3],the percent bound ^125 I estradiol decreases
